Columns and labels:
Hs578T cells = test: SMS assay in Hs578T cells; type: cell-based, human; settings: versus vehicle and PMA (5 nM), FIG. 2A, 2B, 2D, 2E
Excerpt: The SMS assay was developed to assess the transfer of cell dye (for example the acetoxymethyl [AM]-based Calcein AM), between cancer cells. The SMS assay can be applied to any cell lines forming tumour networks such as tumour microtubes (TM) or tunneling nanotubes (TNT), which enable the transfer of molecules across cells. The SMS assay can be used to assess networking capabilities of any cancer cell lines including HepG2 hepatocellular carcinoma cells, Hs578T cell line for human breast cancer, and U373 cell line for human glioblastoma.
The SMS assay is illustrated in FIG. 1. For the SMS assay, two sets of cells are stained with the cell dye of choice and a customary cell tracker dye (for example cell tracker blue) using established staining techniques (steps 1 and 2). Each set of cells are then co-incubated with the compound of interest to assess its capabilities to modulate the cells small molecule sharing characteristics (step 3). Then the two sets of cells are combined on a plate, for example at a ratio of 1:1, and cultured in the presence of the compound of interest (Step 4).
Finally, live cells are evaluated for viability and analyzed by flow cytometry for the uptake of cell dye in the […] cells (Step 5). The comparison of cell tracker uptake against positive and negative control enables the assessment of the compound's ability to modulate the tumour networks including those formed by TM and TNTs
The SMS assay has been applied to assess the modulation of network sharing capabilities of Protein Kinase C Modulators (PKCm) at various concentrations in the Hs578 cell line for human breast cancer, U373 cell line of human glioblastoma, and HepG2 hepatocellular carcinoma cells. PBS vehicle was used as negative control and the PKCm PHORBOL 12-MYRISTATE 13-ACETATE (PMA) at a concentration of 5 nM was used as the positive control.
FIG. 2A and FIG. 2B show the percentage of cell tracker cells that were accepting the cell dye transfer from separately stained donor cells according to the SMS assay of Example. The percentage of acceptor cells detected is shown in comparison to vehicle (upper horizontal line) and PMA at 5-10 nM concentration (lower horizontal line). Active PKCm in the SMS assay (FIG. 2A) show a decrease in acceptor cells relative to vehicle at certain concentration. […] The upper limit of the tested concentrations was determined as the maximal non-cytotoxic dose.

[1] = tested on: patient-derived glioblastoma cells from the Glio10535 model; test: Example 5: subcutaneous Glio10535 glioblastoma, TPPB with temozolomide, relative tumour volume; type: in vivo, NMRI nude mice
Description: NMRI nude mice were subcutaneously implanted with patient-derived glioblastoma cells from the Glio10535 model (Orthmann et al.) on day 0.
Animals were stratified into the treatment groups on day 6 after tumour implantation to achieve similar average tumour volumes per group. Minimal tumour sizes were 44 mm^3 and maximal tumour sizes were 247 mm^3. Vehicle animals (n=9) were treated with a mix of DMSO, Tween20 and PBS. Each 5 animals were orally dosed with temozolomide chemotherapy at 25 mg/kg (TMZ 25) and at 50 mg/kg (TMZ 50) on consecutive days per week. Each week represents one chemotherapy cycle of 5 treatment days and 2 off-treatment days. TPPB was dosed intraperitoneally in combination with 25 mg/kg oral temozolomide either continuously at 0.2 mg/kg (n=10) or intermittently (n=10) at 0.1, 0.4, and 0.7 mg/kg starting with the last dose of every TMZ 25 cycle and ending the day before the next treatment cycle. Before the start of chemotherapy, TPPB was titrated to its target dose.

[2] = tested on: human patient-derived S24 glioblastoma cells; test: Example 6: orthotopic S24 glioblastoma, TPPB followed by radiotherapy, intravital microscopy; type: in vivo, NMRI mice
Description: Orthotopic brain tumours were induced in NMRI mice using human patient-derived S24 glioblastoma cells exactly as described in Example 4. Once significant tumours were established in vivo (approximately 35 days after implantation), as shown by intravital microscopy exactly as described in Example 4, mice received 4 intraperitoneal injections on day -1, day 6 and day 13 and day 20, with Control mice receiving vehicle only and Treated mice receiving TPPB at 200 μg/kg. All mice then received radiotherapy on days 0, 1 and 2 exactly as described in Example 4, except that the radiation dose was 6 Gy as opposed to 7 Gy on each occasion (18 Gy total radiation dose as opposed to 21 Gy total radiation dose). The impact of treatment on the tumour was then monitored by intravital microscopy at intervals after the initiation of radiotherapy on day 0.

PKCα = PKCα (Homo sapiens, UniProt P17252); set-up: key: +—activation; ++—strong activation; settings: cPKCs, gene PRKCA; cited from earlier work
PKCδ = PKCδ (Homo sapiens, UniProt Q05655); set-up: key: +—activation; ++—strong activation; settings: nPKCs, gene PRKCD; cited from earlier work
PKCε = molecular target: T1, PKCε (Homo sapiens, UniProt Q02156); set-up: key: +—activation; ++—strong activation; settings: nPKCs, gene PRKCE; cited from earlier work
T1 sequence (Q02156 1-737): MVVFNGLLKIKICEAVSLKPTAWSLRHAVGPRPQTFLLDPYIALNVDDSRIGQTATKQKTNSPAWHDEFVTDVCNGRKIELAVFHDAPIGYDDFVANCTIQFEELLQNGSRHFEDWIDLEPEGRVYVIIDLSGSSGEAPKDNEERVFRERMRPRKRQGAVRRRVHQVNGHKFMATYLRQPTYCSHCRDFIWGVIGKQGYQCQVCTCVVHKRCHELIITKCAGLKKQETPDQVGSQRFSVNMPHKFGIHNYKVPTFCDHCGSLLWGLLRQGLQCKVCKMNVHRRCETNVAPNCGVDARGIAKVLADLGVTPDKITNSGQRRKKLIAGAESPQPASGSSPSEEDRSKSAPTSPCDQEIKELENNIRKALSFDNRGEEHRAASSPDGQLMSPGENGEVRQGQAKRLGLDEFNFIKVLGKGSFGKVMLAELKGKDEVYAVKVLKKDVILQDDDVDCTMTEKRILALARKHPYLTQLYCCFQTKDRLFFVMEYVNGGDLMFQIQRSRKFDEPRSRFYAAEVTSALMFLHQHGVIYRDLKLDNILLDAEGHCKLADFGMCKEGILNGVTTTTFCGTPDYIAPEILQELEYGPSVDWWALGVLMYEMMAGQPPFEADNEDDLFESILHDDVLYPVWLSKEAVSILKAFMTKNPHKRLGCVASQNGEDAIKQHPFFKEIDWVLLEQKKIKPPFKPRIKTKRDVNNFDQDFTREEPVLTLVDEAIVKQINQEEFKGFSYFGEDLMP

[3] = intermittent TPPB 0.7 2× per week i.p. + TMZ 25 mg/kg oral, by 38
[4] = TPPB 200 μg/kg i.p. followed by radiotherapy, all mice

PKCδ, sequence (Q05655 whole entry): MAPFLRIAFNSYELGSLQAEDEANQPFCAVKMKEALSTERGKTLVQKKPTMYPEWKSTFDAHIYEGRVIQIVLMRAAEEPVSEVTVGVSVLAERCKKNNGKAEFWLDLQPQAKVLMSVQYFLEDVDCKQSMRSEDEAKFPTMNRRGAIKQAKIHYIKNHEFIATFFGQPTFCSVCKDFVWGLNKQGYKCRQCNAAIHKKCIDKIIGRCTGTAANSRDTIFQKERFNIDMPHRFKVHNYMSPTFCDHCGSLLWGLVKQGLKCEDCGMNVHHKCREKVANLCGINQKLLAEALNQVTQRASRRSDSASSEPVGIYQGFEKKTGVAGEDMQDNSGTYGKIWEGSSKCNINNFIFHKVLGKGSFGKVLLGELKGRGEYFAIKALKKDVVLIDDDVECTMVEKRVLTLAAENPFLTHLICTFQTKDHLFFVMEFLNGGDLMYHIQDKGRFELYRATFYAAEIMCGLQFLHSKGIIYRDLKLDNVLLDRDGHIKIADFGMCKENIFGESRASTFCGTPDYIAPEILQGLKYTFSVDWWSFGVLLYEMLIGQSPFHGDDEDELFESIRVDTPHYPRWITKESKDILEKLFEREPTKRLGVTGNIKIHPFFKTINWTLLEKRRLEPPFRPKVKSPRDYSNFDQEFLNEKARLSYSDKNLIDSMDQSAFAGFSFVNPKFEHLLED

CC(C)[C@H]1C(=O)N[C@H](CO)Cc2cc(NC(=O)/C=C/C=C/c3ccc(C(F)(F)F)cc3)ccc2N1C [TPPB, (2E,4E)-N-[(2S,5S)-1,2,3,4,5,6-Hexahydro-5-(hydroxymethyl)-1-methyl-2-(1-methylethyl)-3-oxo-1,4-benzodiazocin-8-yl]-5-[4-(trifluoromethyl)phenyl]-2,4-pentadienamide]
cell dye-sharing in the SMS assay (percentage of acceptor cells) (Hs578T cells): inhibition of cell dye-sharing | effect over control ([1]; continuous dosing with TPPB (0.2 mg/kg QD i.p. + TMZ 25)): no effect over control | anti-tumour effect (relative tumour volume) compared with TMZ 25 monotherapy [1, 3]: additive to the effect of temozolomide 25 mg/kg monotherapy | anti-tumour effect (relative tumour volume) compared with continuous TPPB 0.2 QD + TMZ 25 [1, 3]: superior to continuous treatment with TPPB | tumour growth ([1]; intermittent dosing with TPPB (+ TMZ 25)): tumour growth inhibition | tumour cell morphology ([2]; TPPB 200 μg/kg i.p. + radiotherapy, from day 35 after initiation of radiotherapy): marked change in morphology | outcome of orthotopic solid brain tumour ([2]; TPPB 200 μg/kg i.p. day -1, 6, 13, 20, radiotherapy 6 Gy days 0, 1, 2, by day 91): complete cure | tumour cells in field of view ([2]; TPPB 200 μg/kg i.p. day -1, 6, 13, 20, radiotherapy 6 Gy days 0, 1, 2, day 91): no detectable tumour cells | behavioural or clinical signs associated with the treatment [2, 4]: no behavioural or clinical signs | tolerability [2, 4]: well tolerated | activation of PKCα (PKCα): ++ | activation of PKCδ (PKCδ): + | activation of PKCε (PKCε): +
